The structures appear in SMILES notation. A value given as a limit tells only on which side of the number the result lay.

Results on 11 molecules are retold here after publication PMC7111280 (European Journal of Medicinal Chemistry, 2018).

The test system of one data set is vaccinia virus. Briefly: microbe, parasite or virus in culture. In kind it is cell-based. The following applies: Orthopoxvirus vaccinia, HEL, read-out: vaccinia virus EC50.
In another data set the test system is Hel cells. The following applies: Table 5, HSV/vaccinia assays, Hel cell morphology.
Another data set has as its system HSV-1 (TK−) KOS ACVr. As to the kind of experiment: microbe, parasite or virus in culture. Format: cell-based, herpes simplex virus type 1. The following applies: Human alphaherpesvirus 1, HEL, read-out: HSV-1 (TK−) KOS ACVr EC50.
In another data set the test system is MDA-MB-231-LM2 cells. As to the kind of experiment: Metastatic breast cancer xenograft mouse model. Format: in vivo, SCID mice.
In another data set the test system is HMVEC. As to the kind of experiment: Endothelial cell proliferation, Coulter counter. In kind it is cell-based. The following applies: Homo sapiens, 96 h, read-out: HMVEC IC50.
The subject of the next data set is CMV (AD-169). As to the kind of experiment: Antiviral cytopathicity assay in Hel cells. Format: cell-based, human cytomegalovirus.
The next data set relates to HeLa. The following applies: read-out: HeLa IC50; proliferation, Coulter Counter cell count; cited from earlier work.
A further data set has as its system L1210. The following applies: read-out: L1210 IC50; proliferation, Coulter Counter cell count; cited from earlier work.
Another data set has as its system CEM. The following applies: read-out: CEM IC50; proliferation, Coulter Counter cell count; cited from earlier work.

Regarding `Nc1ccn(C[C@@H](CO)OCP(=O)(O)O)c(=O)n1.O.O` [Cidofovir], the figures for the EC50 in the data set on vaccinia virus and with HSV-1 (TK−) KOS ACVr were 22 µM and 2 µM, respectively. Moreover, in the data set with Hel cells, the “MCC (minimal cytotoxic concentration)” value is >250 µM.

Take `C#C[C@@]1(O)[C@@H](CO)O[C@@H](n2cc(I)c3c(Cl)ccnc32)[C@@H]1O` [Compound 68, 3-iodo-4-chloro-N1-(3′-C-ethynyl-β-D-ribofuranosyl)-pyrrolo[2,3-b]pyridine]: the “MCC (minimal cytotoxic concentration)” value in the data set with Hel cells was >100 µM.

As for `C#C[C@@]1(O)[C@@H](CO)O[C@@H](n2cc(Cl)c3c(N)ncnc32)[C@@H]1O` [Compound 32, 4-amino-5-chloro-N7-(3′-C-ethynyl-β-D-ribofuranosyl)-pyrrolo[2,3-d]pyrimidine], in the data set on MDA-MB-231-LM2 cells (0.3 mg/kg i.t., starting from day 18, after four i.t. injections), the “tumor growth (BLI radiance, caliper)” value is “significantly retarded”. Moreover, the “total metastasis burden in the lungs (BLI)” value with MDA-MB-231-LM2 cells (day 34 versus vehicle control group) is on record as “significantly lower”. In addition, in the data set on HMVEC, the 50% inhibitory concentration (IC50) was < 0.00128 µM.

Turning to `C#C[C@@]1(O)[C@@H](CO)O[C@@H](n2cc(I)c3c(N)ncnc32)[C@@H]1O` [Compound 34, 4-amino-5-iodo-N7-(3′-C-ethynyl-β-D-ribofuranosyl)-pyrrolo[2,3-d]pyrimidine], the 50% inhibitory concentration (IC50) in the data set on HMVEC is < 0.00128 µM.

As to `Nc1nc(O)c2ncn(COC(CO)CO)c2n1` [Ganciclovir, reference compound], the “MCC (minimal cytotoxic concentration)” value with Hel cells was >100 µM.

For `C#C[C@@]1(O)[C@@H](CO)O[C@@H](n2cc(F)c3c(N)ncnc32)[C@@H]1O` [Compound 31, 4-amino-5-fluoro-N7-(3′-C-ethynyl-β-D-ribofuranosyl)-pyrrolo[2,3-d]pyrimidine], the IC50 in the data set on HMVEC is < 0.00128 µM.

Turning to `C#C[C@@]1(O)[C@@H](CO)O[C@@H](n2cc(Br)c3c(Cl)ccnc32)[C@@H]1O` [Compound 67, 3-bromo-4-chloro-N1-(3′-C-ethynyl-β-D-ribofuranosyl)-pyrrolo[2,3-b]pyridine], in the data set on Hel cells, the “MCC (minimal cytotoxic concentration)” value was >100 µM.

Regarding `C#C[C@@]1(O)[C@@H](CO)O[C@@H](n2ccc3c(Cl)ccnc32)[C@@H]1O` [Compound 70, 4-chloro-N1-(3′-C-ethynyl-β-D-ribofuranosyl)-pyrrolo[2,3-b]pyridine], the “activity against hCMV” value with CMV (AD-169) was “inactive”. In addition, in the data set on Hel cells, the “MCC (minimal cytotoxic concentration)” value is >100 µM.

Take `C#C[C@@]1(O)[C@@H](CO)O[C@@H](n2cc(Cl)c3c(Cl)ccnc32)[C@@H]1O` [Compound 66, 3,4-dichloro-N1-(3′-C-ethynyl-β-D-ribofuranosyl)-pyrrolo[2,3-b]pyridine]: the selectivity index with CMV (AD-169) (human cytomegalovirus (hCMV)) came to 10 fold. Further, the “MCC (minimal cytotoxic concentration)” value in the data set on Hel cells is ≥100 µM.

For `C#C[C@@]1(O)[C@@H](CO)O[C@@H](n2cnc3c(N)ncnc32)[C@@H]1O` [Compound 5, 3′-C-ethynyladenosine], the 50% effective concentration (EC50) with vaccinia virus turned out to be 0.35 ± 0.05 µM. Moreover, the IC50 with HeLa was 0.29 ± 0.11 µM; in the data set on L1210 it was 0.73 ± 0.14 µM; with CEM it was 0.61 ± 0.08 µM.

On to `Nc1nc2c(ncn2COCCO)c(=O)[nH]1` [Acyclovir, reference compound], for which the “MCC (minimal cytotoxic concentration)” value with Hel cells is >250 µM.
